Laboratory results: patent US8084644B2, “Iminopropene compound and use thereof” (Sumitomo Chemical Company, Limited, priority 2005, dated 2011)

test system: Spodoptela litura; assay: Test Example 13: cabbage test on common cutworm; type: in vivo; conditions: 50 ppm, fourth-instar, after four days
Protocol: 0.1 ml of the mixture of xylene and N,N-dimethylformamide (xylene:N,N-dimethylformamide=1:1) and 0.04 ml of the mixture of xylene and Sorpol 3005X (TOHO Chemical Industry Co. LTD) (xylene:Sorpol 3005X=1:9) were added to 16 mg of the each test compound. The mixture was diluted with water as that the active ingredient concentration came to prescribed concentration. Furthermore, spreader (Dain: Takeda Pharmaceutical Co. […] The test solution was applied to a cabbage (Brassicae oleracea) in a fifth-leaf stage at a rate 20 ml per pot. After air-drying, ten fourth-instar worm of common cutworm (Spodoptela litura) was placed onto the cabbage, and the cabbage was covered with a cup having holes. After four days, the number of dead worm was examined.

Structure (SMILES) | index number (mortality)
Cc1ccc(SC=CC(=Nc2ccccc2)Sc2ccccc2)cc1 [(130), Phenyl 3-(4-methylphenylthio)-N-(phenyl)thioacrylimidate] | 3 (mortality 80 to 99%)

test system: not given; assay: not given; conditions: not given

Structure (SMILES) | melting point
C(=CC(=Nc1ccccc1)OCc1ccccc1)Sc1ccccc1 [(60), Benzyl N-phenyl-3-(phenylthio)acrylimidate] | 77 to 81 °C
O=S(=O)(C=CC(=Nc1ccccc1)Oc1ccccc1)c1ccccc1 [(99), Phenyl N-phenyl-3-(phenylsulfonyl)acrylimidate] | 110 to 116 °C
Cc1cc(C)nc(SC=CC(=Nc2ccccc2)Oc2ccccc2)n1 [(124), Phenyl 3-(4,6-dimethyl-2-pyrimidinylthio)-N-phenylacrylimidate] | 175 to 178 °C
CN(C=CC(=Nc1ccccc1)Oc1ccccc1)c1ccccc1 [(132), Phenyl 3-(N′-methyl-N′-phenylamino)-N-phenylacrylimidate] | 130 to 132 °C
C(=CN1CCCCC1)C(=Nc1ccccc1)Oc1ccccc1 [(134), Phenyl N-phenyl-3-(piperidino)acrylimidate] | 127 to 128 °C
CC(C)(C)SC=CC(=Nc1ccccc1)Oc1ccccc1 [(140), Phenyl 3-(1,1-dimethylethylthio)-N-phenylacrylimidate] | 134 to 136 °C

test system: Haemaphysalis longicornis; assay: Test Example 11: filter paper bag contact test on ticks; type: in vivo; conditions: 48 h, 0.5 mg test compound on 5 cm×10 cm filter paper, after 2 days
Protocol: 0.5 mg of the test compound was dissolved to […]. Onto one side of filter paper having 5 cm×10 cm, the solution was applied uniformly and then air-dried. Thereafter, the filter paper was folded in half and fixed by paper clips at the side to form bag like shape. Ten Haemaphysalis longicornis was put into the bag, and then the bag was closed with a paper clip. After 2 days, the number of dead insects was examined.

Structure (SMILES) | mortality at 0.5 mg/filter paper
Cc1ccc(SC=CC(=Nc2ccccc2)Sc2ccccc2)cc1 [(130), Phenyl 3-(4-methylphenylthio)-N-(phenyl)thioacrylimidate] | 100%
CC(C)c1ccc(N=C(C=CSc2ccccc2)Oc2ccc(N)cc2)cc1 [(188), 4-Aminophenyl N-[4-(1-methylethyl)phenyl]-3-(phenylthio)acrylimidate] | 100%
FC(F)(F)Oc1ccc(N=C(C=COc2ccccc2)Oc2ccccc2)cc1 [(207), Phenyl N-(4-trifluoromethoxyphenyl)-3-phenoxyacrylimidate] | 100%
Fc1ccc(N=C(C=CSc2ccccc2)Sc2ccccc2)cc1 [(264), Phenyl N-(4-fluorophenyl)-3-(phenylthio)thioacrylimidate] | 100%
Cc1ccc(N=C(C=CSc2ccccc2)SC(C)(C)C)cc1 [(265), 1,1-Dimethylethyl N-(4-methylphenyl)-3-(phenylthio)thioacrylimidate] | 100%
CCSC(C=CSc1ccccc1)=Nc1ccc(C)cc1 [(266), Ethyl N-(4-methylphenyl)-3-(phenylthio)thioacrylimidate] | 100%
Fc1ccc(N=C(C=CSc2ccccc2)Sc2ccc(F)cc2)cc1 [(278), 4-Fluorophenyl N-(4-fluorophenyl)-3-(phenylthio)thioacrylimidate] | 100%
CCCSC(C=CSc1ccccc1)=Nc1ccc(C)cc1 [(280), Propyl N-(4-methylphenyl)-3-(phenylthio)thioacrylimidate] | 100%
CCCCSC(C=CSc1ccccc1)=Nc1ccc(C)cc1 [(284), Butyl N-(4-methylphenyl)-3-(phenylthio)thioacrylimidate] | 100%
Cc1ccc(N=C(C=CSc2ccccc2)SCC(C)C)cc1 [(321), 2-Methylpropyl N-(4-methylphenyl)-3-(phenylthio)thioacrylimidate] | 100%
CCC(C)SC(C=CSc1ccccc1)=Nc1ccc(C)cc1 (stereo not drawn) [(324), 1-Methylpropyl N-(4-methylphenyl)-3-(phenylthio)thioacrylimidate] | 100%
Cc1ccc(N=C(C=CSc2ccccc2)SC2CCCC2)cc1 [(333), Cyclopentyl N-(4-methylphenyl)-3-(phenylthio)thioacrylimidate] | 100%
Cc1ccc(N=C(C=CSc2ccccc2F)SCC2CCCCC2)cc1 [(341), Cyclohexylmethyl 3-(2-fluorophenylthio)-N-(4-methylphenyl)-thioacrylimidate] | 100%
Cc1ccc(N=C(C=CSc2ccccc2F)SCC(C)C)cc1 [(428), Isobutyl 3-(2-fluorophenylthio)-N-(4-methylphenyl)thioacrylimidate] | 100%
Cc1ccc(N=C(C=CSc2cccc(F)c2)SCC(C)C)cc1 [(429), Isobutyl 3-(3-fluorophenylthio)-N-(4-methylphenyl)thioacrylimidate] | 100%
Cc1ccc(N=C(C=CSc2ccc(F)cc2)SCC(C)C)cc1 [(431), Isobutyl 3-(4-fluorophenylthio)-N-(4-methylphenyl)thioacrylimidate] | 100%

Structure (SMILES) | mortality at 0.5 mg/filter paper
Cc1ccc(N=C(C=CSc2ccccc2Cl)SCC(C)C)cc1 [(433), Isobutyl 3-(2-chlorophenylthio)-N-(4-methylphenyl)thioacrylimidate] | 100%
Cc1ccc(N=C(C=CSc2cccc(Cl)c2)SCC(C)C)cc1 [(434), Isobutyl 3-(3-chlorophenylthio)-N-(4-methylphenyl)thioacrylimidate] | 100%
Cc1ccc(N=C(C=CSc2ccc(Cl)cc2)SCC(C)C)cc1 [(435), Isobutyl 3-(4-chlorophenylthio)-N-(4-methylphenyl)thioacrylimidate] | 100%
Cc1ccc(N=C(C=CSc2ccccc2C)SCC(C)C)cc1 [(441), Isobutyl N-(4-methylphenyl)-3-(2-methylphenylthio)thioacrylimidate] | 100%
Cc1ccc(N=C(C=CSc2ccc(C)cc2)SCC(C)C)cc1 [(443), Isobutyl N-(4-methylphenyl)-3-(4-methylphenylthio)thioacrylimidate] | 100%
COc1cccc(SC=CC(=Nc2ccc(C)cc2)SCC(C)C)c1 [(446), Isobutyl 3-(3-methoxyphenylthio)-N-(4-methylphenyl)thioacrylimidate] | 100%
COc1ccc(SC=CC(=Nc2ccc(C)cc2)SCC(C)C)cc1 [(447), Isobutyl 3-(4-methoxyphenylthio)-N-(4-methylphenyl)thioacrylimidate] | 100%
Fc1ccc(SC=CC(=Nc2ccccc2)SC2CCCCC2)cc1 [(469), Cyclohexyl 3-(4-fluorophenylthio)-N-(phenyl)thioacrylimidate] | 100%
Cc1ccc(N=C(C=CSc2ccccc2)SC2CCCCC2)cc1 [(470), Cyclohexyl N-(4-methylphenyl)-3-(phenylthio)thioacrylimidate] | 100%
Cc1ccc(N=C(C=CSc2ccc(F)cc2)SC2CCCCC2)cc1 [(471), Cyclohexyl 3-(4-fluorophenylthio)-N-(4-methylphenyl)thioacrylimidate] | 100%
Cc1ccc(N=C(C=CSc2ccc(Cl)cc2)SC2CCCCC2)cc1 [(472), Cyclohexyl 3-(4-chlorophenylthio)-N-(4-methylphenyl)thioacrylimidate] | 100%
Cc1ccc(N=C(C=CSc2ccc(C)cc2)SC2CCCCC2)cc1 [(473), Cyclohexyl N-(4-methylphenyl)-3-(4-methylphenylthio)thioacrylimidate] | 100%
CCCCSC(C=CSc1ccc(F)cc1)=Nc1ccc(C)cc1 [(474), Butyl 3-(4-fluorophenylthio)-N-(4-methylphenyl)thioacrylimidate] | 100%
CCCCSC(C=CSc1ccc(Cl)cc1)=Nc1ccc(C)cc1 [(475), Butyl 3-(4-chlorophenylthio)-N-(4-methylphenyl)thioacrylimidate] | 100%
Cc1ccc(N=C(C=CSc2ccccc2)Sc2cccs2)cc1 [(480), 2-Thienyl N-(4-methylphenyl)-3-(phenylthio)thioacrylimidate] | 100%
CCC(C)OC(C=CSc1ccc(F)cc1)=Nc1ccc(C)cc1 (stereo not drawn) [(513), 1-Methylpropyl 3-(4-fluorophenylthio)-N-(4-methylphenyl)acrylimidate] | 100%
